Here are results for one compound from patent publication US20190183812A1, “Compounds For The Treatment Of Neuromuscular Disorders” (NMD PHARMA A/S, priority 2017, published 2019).

The subject of assay [1] is isolated rat soleus muscles. Description: Recovery of nerve-stimulated force in isolated rat soleus muscles exposed to sub-maximal tubocurarine. The conditions noted are these: Rattus norvegicus, 40 min; read-out: 50 μM % change after addition. As to the method:
Experiments were performed using rat soleus muscles from either young (4-wk-old) or adult Wistar rats (12-14-week-old). Animal handling, killing and isolation of muscle is described elsewhere All experiments were performed using normal Krebs-Ringer bicarbonate solution (NKR). In solutions with elevated Mg^2+, MgCl2 was added to NKR-solution causing minor increases in osmolarity and ionic strength. In solutions with elevated K^+, 4 mM NaCl was replaced by 4 mM KCl in the NKR.
In all contraction experiments, isometric force production was determined and force produced during contractions was quantified by measuring the integral of the force response (AUC). Stimulation and force recordings have been described elsewhere. […] In these latter experiments, extracellular recordings of action potentials (M-waves) could be measured without temporal overlap with stimulation artefacts.
The aim was to find compounds that by inhibition of CIC-1 channels can recover nerve-stimulated force under conditions of fatigue including conditions where fatigue is caused by compromised neuromuscular transmission. Neuromuscular transmission dysfunction can develop because of both pre- and/or post-synaptic complications in connection with a disorder or as part of neuromuscular blockade during/after surgery. In the initial series of drug testing, experiments were performed with isolated muscles in the presence of sub-maximal ACh receptor antagonist tubocurarine. Since the inclusion of tubocurarine caused a partial loss of neuromuscular transmission this experiment mimics the conditions in myasthenia gravis and neuromuscular blockade. To mimic conditions with pre-synaptic complication (Lambert Eaton syndrome, motor neuron disorder, polyneuropathy) the intact nerve-muscle preparations were incubated at elevated extracellular Mg^2+, which is known to suppress release of ACh from nerve terminals of motor neurons.
To identify CIC-1 inhibitors that could be used for treatment of neuromuscular disorders we repeated the experiment shown in FIG. 2A but instead of adding 9-AC we added the compounds of interest in different concentrations within the range from 10 to 500 μM. […] For comparison with the muscle only exposed to tubocurarine (grey trace), the two traces have been overlaid. […] For comparison, muscles only exposed to tubocurarine have been included. The dotted line indicates the recovery of force with C8 when compared to the force production before its addition. This value was used in Table 1 for evaluation of the efficacy of the different compounds in recovering force.

For assay [2], the system named is rat soleus muscles. Put plainly: Mg2+ concentration required to depress nerve-stimulated force by 50% (Kd,Mg2+), combination with 3,4-AP. As to the method: FIGS. 6A-6E. […] Muscles from 4-week-old rats were stimulated to contract by activating the motor nerve with short duration pulses in field stimulation. Muscles contracted every 10 min for 2 s in response to 30 Hz stimulation. Four different experimental conditions were used. […] C) similar to A) but this muscle had been pre-incubated with 3,4-AP. […] The force integral (AUC) was determined at each extracellular Mg^2+ concentration. AUC was plotted against Mg^2+ concentration and the data was fitted to a sigmoidal function. This provided the extracellular Mg^2+ concentration that was required to reduce the nerve-stimulated force to 50% (Mg50) under the four different conditions (see Table 5).
While the use of tubocurarine mimics conditions with reduced neuromuscular transmission due to post-synaptic dysfunction (myasthenia gravis, neuromuscular blockade), the experiments with elevated extracellular Mg^2+ mimics conditions with pre-synaptic dysfunction akin to a range of neuromuscular disorders including Lambert Eaton syndrome, motor neuron disorders and polyneuropathy. Patients with Lambert Eaton syndrome are commonly treated with inhibitors of voltage gated K^+ channels such as 3,4-diaminopyridine (3,4-AP). Based on this it was determined whether recovery of nerve-stimulated force at elevated extracellular Mg^2+ with CIC-1 inhibiting compounds could be added to force recovery with 3,4-AP. […] FIG. 6A-D show recordings of nerve-stimulated force production at different Mg^2+ concentrations when tested under these four experimental conditions. […] To quantify the effect of compounds on Mg^2+ sensitivity the force at the different Mg^2+ concentrations was determined. In plots of nerve-stimulated force against Mg^2+ concentration (FIG. 6E) the Kd,Mg^2+ was determined by fitting four parameter sigmoidal function to the data. Kd, Mg^2+ for the different compounds have been collected in Table 5.

The subject of assay [3] is isolated human muscles. The conditions noted are these: 150 μM; elevated K+ and TTX.
In assay [4] the test system is rats. Description: Rotarod running performance in passive immunization (MAB35) rat model of myasthenia gravis. Type of assay: in vivo. As to the method:
FIG. 10. […] Prior to I.P. injection of MAB35 the animals had been familiarized to the rotarod over three training sessions distributed over two days. […] After this treatment performance was monitored every second hour. *Indicates significant different as evaluated using student t-test.
(§1) In both series of experiments, running performance was tested on a rotarod using a protocol where the rod was accelerated gradually over a 5 min period, and the running time and covered distance before falling off the rod were measured. […] Experiments with tubocurarine were carried out over two days, and on each day the effect of tubocurarine on running performance was tested. On the first day only tubocurarine was injected. […] On the second day, the animals were first allowed to run on the rotarod, and all animals performed normally. […] The allocation of the animals into the two groups (C8 or sham) was random and unknown to the experimenter (blinded experimental design).
In experiments with MAB35, animals were first familiarized with the rotarod over two consecutive days and then injected I.P. with MAB35. After injection, rotarod performance was then again monitored regularly over the consecutive two days. […] A considerable number of animals, however, became moribund failing to walk and they had altered ventilation (rapid) and pronounced ptosis. These animals were not included in experiments. […]

In assay [5] the test system is rat soleus muscles. Type of assay: cell-based. The conditions noted are these: 10 and 25 μM; 1 μM μ-conotoxin GiiiB.
Assay [6] concerns rats. Description: Rotarod running performance of rats after I.P. tubocurarine (myasthenia like phenotype). Format: in vivo, rat. The conditions noted are these: 20 mg/kg I.P., 2 hrs before tubocurarine 0.13 mg/kg. Here is the method: FIGS. 9A-9B. […] FIG. 9A illustrates the design of the experiments. Prior to Day One the animals had been familiarized to the rotarod in three training sessions distributed over two days.
as §1
In the first series of in vivo experiments, myasthenia gravis was simply mimicked by I.P. injection of tubocurarine (0.13 mg/kg) in animals that had been familiarized to running on the rotarod. On the first of two consecutive days, tubocurarine was injected I.P. and the running performance of the animal was tested 21 minutes after this injection. On the second day of experimentation, the animals first performed a test run to ensure that they were no longer affected by the tubocurarine injected the day before. […]

The target of assay [7] is T1, CIC-1 ion channels (Homo sapiens, UniProt P35523).
T1 construct: Isolated soleus muscles from adult rats or human abdominal muscles preparations were placed in a chamber; from tissue; host or cells: human abdominal muscle from patients
Put plainly: Resting membrane conductance (Gm), three-electrode technique, human muscle: Kd for CIC-1 inhibition. Type of assay: cell-based. The conditions noted are these: concentration that reduced Gm by 50%.

For assay [8], the target named is rat soleus muscles. Put plainly: Tubocurarine concentration required to depress nerve-stimulated force by 50% (Kd,tub), combination with acetylcholinesterase inhibitors. Here is the method:
FIGS. 5A-5E. […] Muscles from 4-week-old rats were stimulated to contract by activating the motor nerve with short duration pulses in field stimulation. Muscles contracted every 10 min for 2 s in response to 30 Hz stimulation. Four different experimental conditions were used. […] After this pre-incubation, increasing concentrations of tubocurarine were added to the bath solutions with 60 min (corresponding to six contractions) between each increase in tubocurarine. […] FIG. 5C similar to FIG. 5A but this muscle had been pre-incubated with neostigmine. […] The force integral (AUC) was determined at each tubocurarine concentration. Such AUC determinations were plotted against tubocurarine concentration for each muscle.
CIC-1 is a novel target in treatment of neuromuscular complications and it was therefore explored whether this approach for symptomatic treatment could be used in combination with existing symptomatic treatment approaches. In myasthenia gravis, which in isolated muscles was mimicked by tubocurarine, the symptoms of muscle fatigue are most commonly treated with inhibitors of acethylcholineesterase of which neostigmine and pyridostigmine are examples. Also, neostigmine is the most commonly used reversal agent of neuromuscular blocked after surgery. […] FIG. 5A-D show recordings of nerve-stimulated force production at different tubocurarine concentrations when tested under the four experimental conditions. […] To quantify the effect of compounds on tubocurarine sensitivity, the force at the different tubocurarine concentrations was determined. In plots of nerve-stimulated force against tubocurarine concentration (FIG. 5E) Kd,tub was determined by fitting four parameter sigmoidal functions to the data and the Kd,tub for the different compounds have been collected in Table 4.

Each structure is given as a SMILES string.

T1 sequence (P35523 whole entry): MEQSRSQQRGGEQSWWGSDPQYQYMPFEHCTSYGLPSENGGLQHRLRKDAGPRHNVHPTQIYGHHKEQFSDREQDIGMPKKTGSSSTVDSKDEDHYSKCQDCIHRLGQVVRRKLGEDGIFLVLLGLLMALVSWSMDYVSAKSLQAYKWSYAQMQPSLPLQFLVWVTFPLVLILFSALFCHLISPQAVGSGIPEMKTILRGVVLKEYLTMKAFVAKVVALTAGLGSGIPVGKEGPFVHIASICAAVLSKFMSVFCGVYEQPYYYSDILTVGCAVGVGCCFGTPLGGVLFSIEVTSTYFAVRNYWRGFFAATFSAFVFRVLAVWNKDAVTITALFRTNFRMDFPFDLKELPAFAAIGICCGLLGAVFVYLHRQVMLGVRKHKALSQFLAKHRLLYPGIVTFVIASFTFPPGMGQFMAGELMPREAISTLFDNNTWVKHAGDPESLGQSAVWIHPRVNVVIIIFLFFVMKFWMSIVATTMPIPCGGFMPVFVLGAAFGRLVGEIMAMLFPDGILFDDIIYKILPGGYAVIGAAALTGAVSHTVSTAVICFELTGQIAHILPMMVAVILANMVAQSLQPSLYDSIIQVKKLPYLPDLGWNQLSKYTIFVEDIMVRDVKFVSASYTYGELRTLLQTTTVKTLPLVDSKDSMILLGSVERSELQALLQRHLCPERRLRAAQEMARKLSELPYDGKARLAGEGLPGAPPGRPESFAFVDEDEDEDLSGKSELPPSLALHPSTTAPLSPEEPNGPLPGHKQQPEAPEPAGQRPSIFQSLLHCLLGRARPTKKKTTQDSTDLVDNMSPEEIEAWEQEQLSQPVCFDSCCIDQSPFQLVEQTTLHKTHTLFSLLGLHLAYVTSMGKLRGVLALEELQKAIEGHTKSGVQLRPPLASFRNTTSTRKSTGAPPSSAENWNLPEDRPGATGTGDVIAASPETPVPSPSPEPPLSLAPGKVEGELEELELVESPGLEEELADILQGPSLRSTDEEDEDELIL

With `C[C@H](Oc1ccc(Br)cc1)C(=O)O` [Compound C8, (2S)-2-(4-bromophenoxy)propanoic acid], the activation at 50 µM in assay [1] was 16%. Also, the “effect of combination on recovery of neuromuscular transmission” value in assay [2] (C8 and 3,4-diaminopyridine together) was “unexpected synergistic effect”. The Kd in assay [2] (Compound (50 μM) + 3,4-AP (10 μM)) amounted to 7800 ± 500 µM; in assay [2] (Compound (50 μM) alone) it was 4000 ± 100 µM; in assay [7], 5.5 µM; in assay [8] (Compound (50 μM) + Neostigmine (10 nM)), 0.218 ± 0.018 µM; in assay [8] (Compound (50 μM) + Pyridostigmine (100 nM)), 0.186 ± 0.005 µM; in assay [8] (Compound (50 μM) alone), 0.177 ± 0.007 µM. The contractile force result in assay [3] is given as “markedly recovery”. Moreover, the “rotarod performance after injection” value in assay [4] (20 mg/kg) is given as “decline was reduced”; in assay [4] (30 mg/kg), “clear recovery of performance”. Besides, the EPP amplitude result in assay [5] is listed as “significantly larger EPPs”. Also, in assay [6], the “increase in distance run on the second day compared to the first day” value was “around 150%”.
